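Dose response: 5 concentrations. Exposure: 48 h. Format: 96-well plates. Endpoint: linear interpolation; highest concentration if not reached. GI50 = concentration required for 50% inhibition of growth. At the TGI there is no net growth.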
Key:
Experiment in all cases: NCI anticancer screen, dose series, 48 h
[1] = test system: HOP-62 NSCLC
[2] = test system: NCI-H23 lung
[3] = test system: U251 CNS
[4] = test system: RXF 393 renal
[5] = test system: SN12C renal
[6] = test system: CCRF-CEM leukemia
[7] = test system: KM12 colon
[8] = test system: TK-10 renal
[9] = test system: NCI-H226 lung
[10] = test system: SK-MEL-28 melanoma
[11] = test system: SF-268 CNS
[12] = test system: MDA-MB-231 breast
[13] = test system: NCI-H460 lung
[14] = test system: HOP-92 NSCLC
[15] = test system: SF-539 CNS
[16] = test system: HCC-2998 colon
[17] = test system: EKVX NSCLC
[18] = test system: SNB-75 CNS
[19] = test system: SNB-19 CNS
[20] = test system: T-47D breast
[21] = test system: OVCAR-8 ovarian
[22] = test system: SK-MEL-2 melanoma
[23] = test system: HCT-116 colon
[24] = test system: UACC-257 melanoma
[25] = test system: MDA-MB-435
[26] = test system: PC-3 prostate
[27] = test system: UACC-62 melanoma
[28] = test system: HCT-15 colon
[29] = test system: A498 renal
[30] = test system: CAKI-1 renal
[31] = test system: SK-MEL-5 melanoma
[32] = test system: DU-145 prostate
[33] = test system: SF-295 CNS
[34] = test system: BT-549 breast
[35] = test system: MCF7 breast
[36] = test system: HL-60(TB) leukemia
[37] = test system: NCI/ADR-RES ovarian
[38] = test system: A549 NSCLC
[39] = test system: OVCAR-3 ovarian
[40] = test system: SW-620 colon
[41] = test system: MOLT-4 leukemia
[42] = test system: COLO 205 colon
[43] = test system: M14 melanoma
[44] = test system: LOX IMVI melanoma
[45] = test system: HT29 colon
[46] = test system: SK-OV-3 ovarian
[47] = test system: K-562 leukemia
[48] = test system: OVCAR-5 ovarian
[49] = test system: OVCAR-4 ovarian
[50] = test system: ACHN renal
[51] = test system: HS 578T breast
[52] = test system: SR leukemia
[53] = test system: RPMI-8226 leukemia
[54] = test system: 786-0 renal
[55] = test system: MALME-3M melanoma

COc1ccc(CCNc2nc3ccccc3c3[nH]c4ccccc4c23)cc1OC
GI50 [1]: 10.9 µM
TGI [1]: 24.4 µM
GI50 [2]: 10.4 µM
TGI [2]: 24.6 µM
GI50 [3]: 2.97 µM
TGI [3]: 10.3 µM
GI50 [4]: 1.47 µM
TGI [4]: 3.15 µM
GI50 [5]: 3.58 µM
TGI [5]: 16.5 µM
GI50 [6]: 1.87 µM
TGI [6]: 13.8 µM
GI50 [7]: 1.53 µM
TGI [7]: 3.58 µM
GI50 [8]: 4.47 µM
TGI [8]: 17 µM
GI50 [9]: 7.82 µM
TGI [9]: 25 µM
GI50 [10]: 1.71 µM
TGI [10]: 3.21 µM
GI50 [11]: 4.77 µM
TGI [11]: 20.6 µM
GI50 [12]: 2.21 µM
TGI [12]: 8.03 µM
GI50 [13]: 2.1 µM
TGI [13]: 5.93 µM
GI50 [14]: 2.43 µM
TGI [14]: 8 µM
GI50 [15]: 2.17 µM
TGI [15]: 4.06 µM
GI50 [16]: 1.6 µM
TGI [16]: 3.1 µM
GI50 [17]: 22.6 µM
TGI [17]: 45.3 µM
GI50 [18]: 14.3 µM
TGI [18]: 28.4 µM
GI50 [19]: 3.84 µM
TGI [19]: 15.4 µM
GI50 [20]: 15.3 µM
TGI [20]: 34.2 µM
GI50 [21]: 2.02 µM
TGI [21]: 5.54 µM
GI50 [22]: 1.98 µM
TGI [22]: 3.77 µM
GI50 [23]: 1.71 µM
TGI [23]: 3.52 µM
GI50 [24]: 1.99 µM
TGI [24]: 3.8 µM
GI50 [25]: 1.72 µM
TGI [25]: 3.37 µM
GI50 [26]: 3.66 µM
TGI [26]: 14 µM
GI50 [27]: 13 µM
TGI [27]: 26.6 µM
GI50 [28]: 2.86 µM
TGI [28]: 10.4 µM
GI50 [29]: 2.75 µM
TGI [29]: 9.48 µM
GI50 [30]: 11.4 µM
TGI [30]: 24.8 µM
GI50 [31]: 1.8 µM
TGI [31]: 3.21 µM
GI50 [32]: 3.85 µM
TGI [32]: 15.8 µM
GI50 [33]: 2.55 µM
TGI [33]: 9.02 µM
GI50 [34]: 12.1 µM
TGI [34]: 26.3 µM
GI50 [35]: 2.2 µM
TGI [35]: 5.32 µM
GI50 [36]: 1.65 µM
TGI [36]: 3.88 µM
GI50 [37]: 4.73 µM
TGI [37]: 26 µM
GI50 [38]: 2.66 µM
TGI [38]: 8.24 µM
GI50 [39]: 1.98 µM
TGI [39]: 4.24 µM
GI50 [40]: 2.34 µM
TGI [40]: 6.07 µM
GI50 [41]: 3.23 µM
TGI [41]: 12.3 µM
GI50 [42]: 1.57 µM
TGI [42]: 3.46 µM
GI50 [43]: 1.87 µM
TGI [43]: 3.5 µM
GI50 [44]: 2.28 µM
TGI [44]: 5.38 µM
GI50 [45]: 2.04 µM
TGI [45]: 6.32 µM
GI50 [46]: 19.9 µM
TGI [46]: 34.6 µM
GI50 [47]: 2.45 µM
TGI [47]: 10.2 µM
GI50 [48]: 3.48 µM
TGI [48]: 11.6 µM
GI50 [49]: 3.15 µM
TGI [49]: 12.8 µM
GI50 [50]: 3.91 µM
TGI [50]: 17.1 µM
GI50 [51]: 2.54 µM
TGI [51]: 6.17 µM
GI50 [52]: 2.32 µM
TGI [52]: 7.93 µM
GI50 [53]: 2.18 µM
TGI [53]: 5.24 µM
GI50 [54]: 1.7 µM
TGI [54]: 3.28 µM
GI50 [55]: 1.5 µM
TGI [55]: 3.15 µM

Source: PubChem BioAssay (NCI)
